These results are taken from patent publication US8853193B2, “Thienopyrimidines containing a substituted alkyl group for pharmaceutical compositions” (Boehringer Ingelheim International GmbH, priority 2010, dated 2014).

What is called IC50 is the concentration at which inhibition is half-maximal.

Counter-ions that a name gives are not always drawn.

This assay deals with human Mnk2a (Homo sapiens (Human), UniProt Q9HBH9). Kind of assay: Mnk2a in vitro kinase assay (indirect competitive fluorescence polarization). The conditions noted are these: pre-activated GST-Mnk2a 2.5 nM, 20 μM ATP, 30 μM substrate peptide; read-out: MNK2 IC50. Type of assay: biochemical. The protocol: Inhibitory potency of compounds against Mnk1, Mnk2a and other kinases was assessed with assays based on a format known to those skilled in the art as the indirect (competitive) fluorescence polarization. The assay detection system comprises a small fluorophore-labeled phospho-peptide (termed ligand) bound to a phospho-specific antibody. The product generated by the kinase reaction competes with the ligand for antibody binding. Based on the larger molecular volume of the bound ligand, which results in a lower rotation rate in solution, its emitted light has a higher degree of polarization than the one from the free ligand.
Sequence of human Mnk2a (Q9HBH9 whole entry): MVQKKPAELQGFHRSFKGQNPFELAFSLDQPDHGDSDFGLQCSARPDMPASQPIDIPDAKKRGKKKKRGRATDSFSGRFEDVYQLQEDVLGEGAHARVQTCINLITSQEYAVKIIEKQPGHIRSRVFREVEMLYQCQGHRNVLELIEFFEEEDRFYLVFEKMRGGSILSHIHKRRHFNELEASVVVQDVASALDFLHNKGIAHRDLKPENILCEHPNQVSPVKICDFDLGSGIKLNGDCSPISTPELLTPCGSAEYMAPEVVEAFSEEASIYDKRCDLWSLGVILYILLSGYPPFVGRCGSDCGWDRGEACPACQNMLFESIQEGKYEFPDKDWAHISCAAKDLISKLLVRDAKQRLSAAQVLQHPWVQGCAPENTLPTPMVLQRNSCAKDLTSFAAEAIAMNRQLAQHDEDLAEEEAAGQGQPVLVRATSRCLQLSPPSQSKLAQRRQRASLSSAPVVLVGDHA
In brief, the open reading frames of human Mnk1 and Mnk2a were amplified from cDNA using the forward/reverse primer pairs
(utilized restriction sites underlined), respectively, and cloned into the BamHI and SalI sites of the vector pGEX-4T1 (Amersham, Sweden, cat. no. 27-4580-01). These constructs allow prokaryotic expression of Mnk1 or Mnk2a as fusion protein with a N-terminal glutathione S-transferase (GST) tag, referred to as GST-Mnk1 or GST-Mnk2a. The following expression and purification procedure was identical for GST-Mnk1 and GST-Mnk2a, referring in general to GST-Mnk, when not distinguishing between the two isoforms. Expression of GST-Mnk was in E. coli BL21 (Merck Biosciences, Germany, cat. no. 69449). Cells were grown in LB-Bouillon (Merck, Germany, cat. no. 1.10285) supplemented with 100 μg/ml ampicillin (Sigma, Germany, cat. no. A9518) at 37° C. […] Cells harvested by centrifugation were resuspended in 10 ml lysis buffer (50 mM tris(hydroxymethyl)aminomethane hydrochloride (Tris/HCl, Sigma, Germany, cat. no. T5941) pH 7.5, 300 mM sodium chloride (NaCl, Sigma, Germany, cat. no. S7653), 5% (w/v) glycerol (Sigma, Germany, cat. no. G5516), 3 mM DTT dithiotreitol (DTT, Sigma, Germany, cat. no. D9779)) per gram wet weight cell pellet. Lysates were prepared by disruption of cells with a sonifier and subsequent clearing by centrifugation at 38000 g for 45 min at 4° C.
The lysate was applied to a GSTPrep FF 16/10 column (Amersham, Sweden, cat. no. 17-5234-01) equilibrated with lysis buffer. Removal of unbound material was with 3 column volumes (CV) lysis buffer. Elution was with 2 CV of elution buffer (50 mM Tris/HCl pH 7.5, 300 mM NaCl, 5% (w/v) glycerol, 20 mM glutathione (Sigma, Germany, cat. no. G4251)). Peak fractions were pooled and the protein transferred into storage buffer (50 mM Tris/HCl pH 7.5, 200 mM NaCl, 0.1 mM ethylene glycol[…] bis(2-aminoethylether)-N,N,N′,N′-tetraacetic acid (EGTA, Aldrich, Germany, cat. no. 23, 453-2), 1 mM DTT, 10% (w/v) glycerol, 0.5 M sucrose (Sigma, Germany, cat. no. S0389) by gel filtration on a PD10 desalting column (Amersham, Sweden, cat. no. 17-0851-01). Aliquots were shock frozen in liquid nitrogen and stored at −80° C.
Activation of Mnk1 and Mnk2a was at a concentration of 2.5 μM of either purified GST-Mnk1 or GST-Mnk2a by incubation with 150 nM pre-activated NHis-ERK2 (see ERK2 assay for preparation) and 50 μM adenosine triphosphate (ATP, Sigma, cat. no. A2699) in a buffer comprising 20 mM N-(2-hydroxyethyl)piperazine-N′-(2-ethanesulfonic acid) (HEPES, Fluka, Germany, cat. no 54459)/potassium hydroxide (KOH, Roth, Germany, cat. no 6751.1) pH 7.4, 10 mM magnesium chloride (MgCl2, Sigma, Germany, cat. no. M2670), 0.25 mM DTT, 0.05% (w/v) polyoxyethylene 20 stearylether (Brij 78, Sigma, Germany, cat. no. P4019) (HMDB buffer) for 45 min at 30° C. After the incubation, the preparation was aliquoted into single-use samples, shock frozen in liquid nitrogen, stored at −80° C. and utilized for Mnk1 or Mnk2a kinase assays as detailed below.
The serine residue phosphorylated by Mnk kinases is underlined.
A general note: Polarisation of emitted light reports the rotation of a fluorescent probe.
Consider `Cc1c(C(N)=O)sc2ncnc(Nc3ccc(F)cc3O[C@@H](C)CNC(=O)OC(C)(C)C)c12` (racemic) [Compound 6-1, (R) and (S)-tert-butyl 2-(2-(6-carbamoyl-5-methyl-thieno[2,3-d]pyrimidin-4-ylamino)-5-fluorophenoxy)propylcarbamate], for which the IC50 worked out at 164 nM.

As for `Cc1c(C(N)=O)sc2ncnc(Nc3ccc(F)cc3O[C@@H](C)CN)c12` (racemic) [Compound 6-2, (R) and (S)-4-(2-(1-aminopropan-2-yloxy)-4-fluorophenylamino)-5-methylthieno[2,3-d]pyrimidine-6-carboxamide trifluoroacetate], the half-maximal inhibitory concentration (IC50) amounted to 90 nM.

With `Cc1c(C(=O)N[C@@H]2C[C@H]2N)sc2ncnc(Nc3ccc(F)cc3OC(CF)CF)c12` (relative stereo) [Compound 25, N-((trans)-2-Aminocyclopropyl)-4-(2-(1,3-difluoropropan-2-yloxy)-4-fluorophenylamino)-5-methylthieno[2,3-d]pyrimidine-6-carboxamide hydrochloride], the half-maximal inhibitory concentration (IC50) worked out at 12 nM.

On to `Cc1c(C(=O)O)sc2ncnc(Nc3ccc(F)cc3OC(C)CNC(=O)OC(C)(C)C)c12` (stereo not drawn) [Compound 1-2, 4-(2-(1-(tert-Butoxycarbonylamino)propan-2-yloxy)-4-fluorophenylamino)-5-methyl-thieno[2,3-d]pyrimidine-6-carboxylic acid], for which the concentration for half-maximal inhibition (IC50) is 52 nM.

Regarding `CNC(=O)c1sc2ncnc(Nc3ccc(F)cc3OC(C)CNC(=O)OC(C)(C)C)c2c1C` (stereo not drawn) [Compound 1-3, tert-Butyl 2-(5-fluoro-2-(5-methyl-6-(methylcarbamoyl)thieno[2,3-d]pyrimidin-4-ylamino)phenoxy)propylcarbamate], the half-inhibitory concentration (IC50) came out at 342 nM.

Consider `Cc1c(C(=O)NCCCN(C)C)sc2ncnc(Nc3ccc(F)cc3OC(C)CNC(=O)OC(C)(C)C)c12` (stereo not drawn) [Compound 1-4, tert-Butyl 2-(2-(6-(3-(dimethymino)propyl-carbamoyl)-5-methyl-thieno[2,3-d]pyrimidin-4-ylamino)-5-fluoro-phenoxy)propyl-carbamate], for which the half-inhibitory concentration (IC50) was 294 nM.

For `Cc1c(C(=O)NCCO)sc2ncnc(Nc3ccc(F)cc3OC(C)CNC(=O)OC(C)(C)C)c12` (stereo not drawn) [Compound 1-5, tert-Butyl 2-(5-fluoro-2-(6-(2-hydroxyethyl-carbamoyl)-5-methylthieno[2,3-d]-pyrimidin-4-yl-amino)-phenoxy)propyl-carbamate], the concentration for half-maximal inhibition (IC50) was 459 nM.

As to `COC(=O)c1sc2ncnc(Nc3ccc(F)cc3OC(C)CN)c2c1C` (stereo not drawn) [Compound 2-1, Methyl 4-(2-(1-aminopropan-2-yloxy)-4-fluorophenylamino)-5-methyl-thieno[2,3-d]pyrimidine-6-carboxylate trifluoroacetate], the IC50 worked out at 70 nM.

In the case of `Cc1c(C(=O)NCCCN(C)C)sc2ncnc(Nc3ccc(F)cc3OC(C)CN)c12` (stereo not drawn) [Compound 2-2, 4-(2-(1-Amino-propan-2-yloxy)-4-fluorophenylamino)-N-(3-(diemthyl-amino)propyl)-5-methylthieno[2,3-d]pyrimidine-6-carboxamide bis(trifloroacetate)], the IC50 came to 41 nM.

For `Cc1c(C(=O)NCCO)sc2ncnc(Nc3ccc(F)cc3OC(C)CN)c12` (stereo not drawn) [Compound 2-3, 4-(2-(1-Amino-propan-2-yloxy)-4-fluorophenylamino)-N-(2-hydroxy-ethyl)-5-methyl-thieno[2,3-d]-pyrimidine-6-carboxamide], the IC50 was found to be 50 nM.

Consider `CNC(=O)c1sc2ncnc(Nc3ccc(F)cc3OC(C)CN)c2c1C` (stereo not drawn) [Compound 2-4, 4-(2-(1-Amino-propan-2-yloxy)-4-fluorophenylamino)-N-5-methyl-thieno[2,3-d]-pyrimidin-6-carboxamide trifluoroacetate], for which the concentration for half-maximal inhibition (IC50) was 23 nM.

Turning to `COC(=O)c1sc2ncnc(Nc3ccc(F)cc3OC(C)CNS(C)(=O)=O)c2c1C` (stereo not drawn) [Compound 3-1, Methyl 4-(4-fluoro-(2-(1-methylsulfonamido)propan-2-yloxy)phenylamino)-5-methyl-thieno[2,3-d]pyrimidine-6-carboxylate], the 50% inhibitory concentration (IC50) worked out at 41 nM.

Consider `COC(=O)c1sc2ncnc(Nc3ccc(F)cc3OC(C)CNS(=O)(=O)C(C)C)c2c1C` (stereo not drawn) [Compound 3-2, Methyl 4-(4-fluoro-2-(1-(1-methylethylsulfon-amino)propan-2yloxy)-phenylamino)-5-methyl-thieno[2,3-d]pyrimidine-6-carboxylate], for which the IC50 was 204 nM.

As for `Cc1c(C(=O)NCCCN(C)C)sc2ncnc(Nc3ccc(F)cc3OC(C)CNS(C)(=O)=O)c12` (stereo not drawn) [Compound 3-3], the IC50 came to 18 nM.

Take `COC(=O)c1sc2ncnc(Nc3ccc(F)cc3OC(C)CNC(C)=O)c2c1C` (stereo not drawn) [Compound 3-4, Methyl 4-(2-(1-acet-amidopropan-2-yloxy)-4-fluorophenylamino)-5-methylthieno[2,3-d]pyrimidine-6-carboxylate]: the IC50 came to 261 nM.

Take `COC(=O)c1sc2ncnc(Nc3ccc(F)cc3OC(C)CNC(=O)C(C)C)c2c1C` (stereo not drawn) [Compound 3-5, Methyl 4-(4-fluoro2-(1-isobutyramidopropan-2-yloxy)phenylamino)-5-methylthieno[2,3-d]-pyrimidine-6-carboxylate]: the 50% inhibitory concentration (IC50) came out at 443 nM.

As to `COC(=O)c1sc2ncnc(Nc3ccc(F)cc3OC(C)CN(C)C)c2c1C` (stereo not drawn) [Compound 4, Methyl 4-(2-(1-dimethylamino)propan-2yloxy)-4-fluorophenylamino)-5-methyl-thieno[2,3-d]pyrimidine-6-carboxylate trifluoroacetate], the concentration for half-maximal inhibition (IC50) was determined as 3140 nM.

`Cc1c(C(N)=O)sc2ncnc(Nc3ccc(F)cc3OC(C)CNC(=O)OC(C)(C)C)c12` (stereo not drawn) [Compound 5, tert-Butyl 2-(2-(6-carbamoyl-5-methyl-thieno[2,3-d]pyrimidin-4-ylamino)-5-fluorophenoxy)propylcarbamate]: the half-inhibitory concentration (IC50) was 230 nM.

As for `Cc1c(C(=O)O)sc2ncnc(Nc3ccc(F)cc3OC(C)CN)c12` (stereo not drawn) [Compound 7, 4-(2-(1-Aminopropan-2-yloxy)-4-fluorophenylamino)-5-methyl-thieno[2,3-d]pyrimidine-6-carboxylic acid trifluoroacetate], the half-maximal inhibitory concentration (IC50) came out at 14 nM.

With `Cc1c(C(N)=O)sc2ncnc(Nc3ccc(F)cc3OC(C)CNCCC(F)(F)F)c12` (stereo not drawn) [Compound 8-2], the half-inhibitory concentration (IC50) stood at 64 nM.

`COC(=O)c1sc2ncnc(Nc3ccc(F)cc3OCCN)c2c1C` [Compound 9-2, Methyl 4-(2-(2-aminoethoxy)-4-fluorophenylamino)-5-methyl-thieno[2,3-d]pyrimidine-6-carboxylate hydrochloride]: the IC50 was 577 nM.

Regarding `CCC(CN)Oc1cc(F)ccc1Nc1ncnc2sc(C(=O)OC)c(C)c12` (stereo not drawn) [Compound 10-2, Methyl 4-(2-(1-aminobutan-2yloxy)-4-fluorophenylamino)-5-methyl-thieno[2,3-d]pyrimidine-6-carboxylate hydrochloride], the IC50 was found to be 229 nM.

Consider `COC(=O)c1sc2ncnc(Nc3cccnc3OC(C)CN)c2c1C` (stereo not drawn) [Compound 11-2, Methyl 4-(2-(1-aminopropan-2yloxy)-pyridin-3-ylamino)-5-methyl-thieno[2,3-d]pyrimidine-6-carboxylate hydrochloride], for which the half-inhibitory concentration (IC50) was determined as 418 nM.

`COC(=O)c1sc2ncnc(Nc3ccc(F)cc3OC(C)CCN)c2c1C` (stereo not drawn) [Compound 12, Methyl 4-(2-(4-aminobutan-2yloxy)-4-fluorophenylamino)-5-methyl-thieno[2,3-d]pyrimidine-6-carboxylate hydrochloride]: the IC50 was 52 nM.
